In assay [1] the target is T1, FAAH (Mus musculus, UniProt O08914).
T1 construct: A fragment of liver, left lung lobe and brain without cerebellum were removed; from tissue; host or cells: male NMRI mice; brain (without cerebellum) and liver homogenates
T1 sequence (O08914 1-579): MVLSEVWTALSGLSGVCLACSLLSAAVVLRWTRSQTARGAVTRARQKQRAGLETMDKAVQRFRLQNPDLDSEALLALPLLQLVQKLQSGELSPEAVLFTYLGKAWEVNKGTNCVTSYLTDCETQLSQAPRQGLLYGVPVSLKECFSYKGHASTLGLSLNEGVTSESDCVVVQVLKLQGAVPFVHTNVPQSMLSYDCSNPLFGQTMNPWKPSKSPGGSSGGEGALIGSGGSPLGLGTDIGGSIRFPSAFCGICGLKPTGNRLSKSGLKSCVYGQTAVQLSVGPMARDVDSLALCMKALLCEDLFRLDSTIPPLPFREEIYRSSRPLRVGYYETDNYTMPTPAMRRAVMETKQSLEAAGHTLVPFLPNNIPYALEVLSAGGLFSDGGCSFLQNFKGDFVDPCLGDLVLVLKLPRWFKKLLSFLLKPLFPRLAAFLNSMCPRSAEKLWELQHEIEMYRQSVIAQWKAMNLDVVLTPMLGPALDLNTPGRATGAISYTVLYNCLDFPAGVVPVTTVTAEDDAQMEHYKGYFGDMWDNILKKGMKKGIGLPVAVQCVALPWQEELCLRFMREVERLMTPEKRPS
Kind of assay: In vivo FAAH inhibition after oral dosing, remaining activity in brain homogenate (BRh, central nervous tissue). More on the design: species or system NMRI mice. The settings on record: brain homogenate, low value = strong inhibitor; for In Vivo BRh 3 mg · kg · 8 h (remaining FAAH activity): 3 mg/kg oral; for In Vivo BRh 3 mg·kg 8 h (remaining FAAH activity, % of control): 8 h after dosing. Here is the method: (§1) The in vivo test was performed according to the protocol described below. BRh indicates inhibition in central nervous tissue and LVh indicates inhibition in peripheral tissue, in this case liver.
(§2) The animals used for experiments were male NMRI mice (weighing 27-44 g) obtained from Interfauna Ibérica (Spain). Mice were kept 5 per cage, under controlled environmental conditions (12 hr light/dark cycle and room temperature 22±1° C.). Food and tap water were allowed ad libitum and the experiments were all carried out during daylight hours.
(§3) Animals were administered 30 mg/kg or 3 mg/kg compounds of the invention via oral route (8 ml/kg; compound suspended in 0.5% carboxymethylcellulose (CMC) or solubilized in water) or vehicle (controls) using animal feeding stainless steel curve needles (Perfectum, U.S.A.). Fifteen minutes before sacrifice animal were anesthetized with pentobarbital 60 mg/kg administered intraperitoneally. A fragment of liver, left lung lobe and brain without cerebellum were removed and put in plastic vials containing membrane buffer (3 mM MgCl2, 1 mM EDTA, 50 mM Tris HCl pH 7.4). Tissues were stored at −30° C. until analysis.
(§4) Animals were always fasted overnight before administration of compounds except for time points of >18 h, where food was removed on the morning of day of administration and the compound was administered in the afternoon of the same day. Animals were then given water but nothing else.
(§5) Tissues were thawed on ice and were homogenized in 10 volumes of membrane buffer (3 mM MgCl2, 1 mM EDTA, 50 mM Tris HCl pH 7.4) with either Potter-Elvejhem (brains—8 strokes at 500 rpm) or Heidolph Diax (livers—2 strokes at position 5 for 20 sec with 30 sec pauses).
(§6) Total protein in tissues was determined with the BioRad Protein Assay (BioRad) using a standard curve of BSA (50-250 μg/ml).
(§7) Reaction mix (total volume of 200 μl) contained: […] (2 μM AEA+5 nM ^3H-AEA), 0.1% fatty acid free BSA, 15 μg (brain), 5 μg (liver) or 50 μg (lung) protein, in 1 mM EDTA, 10 mM Tris pH 7.6. After a […] pre-incubation period at 37° C., reaction was started by the addition of the substrate solution (cold AEA+radiolabelled AEA+BSA). Reaction was carried out for 10 min (brain and lung) or […] (liver) before termination by the addition of 400 μl activated charcoal suspension (8 g charcoal in 32 ml 0.5 M HCl in continuous agitation). After a […] incubation period at room temperature with agitation, charcoal was sedimented by centrifugation in microfuge (10 min at 13000 rpm). 200 μl of the supernatant were added to 800 μl Optiphase Supermix scintillation cocktail previously distributed in 24-well plates. Counts per minute (cpm) were determined in a MicrobetaTriLux scintillation counter.
(§8) In each assay blanks (without protein) were prepared.
(§9) The percentage of remaining enzymatic activity was calculated in respect to controls and after blank subtraction.

Assay [2] deals with T1, FAAH. The assay is described as follows: In vivo FAAH inhibition after oral dosing, remaining activity in liver homogenate (LVh, peripheral tissue). The settings on record: liver homogenate, low value = strong inhibitor; for In Vivo LVh 3 mg · kg · 8 h (remaining FAAH activity): 3 mg/kg oral; for In Vivo LVh 3 mg·kg 8 h (remaining FAAH activity, % of control): 8 h after dosing. More on the design: species or system NMRI mice. Here is the method:
as §1, §2, §3, §4, §5, §6, §7, §8, §9

Assay [3] deals with T2, FAAH (Rattus norvegicus, UniProt P97612).
T2 construct: Frozen brains (without cerebellum) from Wistar rats were used; from tissue; host or cells: Wistar rat brain (without cerebellum), washed membrane pellets
T2 sequence (P97612 1-579): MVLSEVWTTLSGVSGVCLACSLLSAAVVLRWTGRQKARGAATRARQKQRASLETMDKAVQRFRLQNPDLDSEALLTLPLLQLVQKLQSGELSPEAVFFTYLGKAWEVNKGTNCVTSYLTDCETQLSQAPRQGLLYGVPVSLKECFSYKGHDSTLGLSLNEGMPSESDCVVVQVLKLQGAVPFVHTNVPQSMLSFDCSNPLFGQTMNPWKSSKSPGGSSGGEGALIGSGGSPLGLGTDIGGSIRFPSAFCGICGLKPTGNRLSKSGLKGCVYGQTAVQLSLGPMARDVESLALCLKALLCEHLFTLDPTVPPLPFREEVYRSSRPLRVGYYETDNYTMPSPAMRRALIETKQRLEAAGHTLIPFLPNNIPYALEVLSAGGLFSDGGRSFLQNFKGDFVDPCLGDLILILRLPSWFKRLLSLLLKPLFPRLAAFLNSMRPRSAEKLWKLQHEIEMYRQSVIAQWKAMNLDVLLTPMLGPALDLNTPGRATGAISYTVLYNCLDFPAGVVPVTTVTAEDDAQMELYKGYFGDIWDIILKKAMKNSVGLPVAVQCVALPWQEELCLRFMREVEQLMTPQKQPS
Kind of assay: In vitro FAAH activity in rat brain membranes, 3H-AEA substrate, % of control. Type of assay: biochemical, Wistar rats. The settings on record: low value = strong inhibitor; for In Vitro FAAH activity, 100 nM: 100 nM test compound. In short, it runs like this:
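FAAH activity measured as 3H-ethanolamine released from 2 μM [3H]AEA over 10 min by rat brain membrane preparation, after 15 min 37 °C preincubation with test compound at 10 or 0.1 μM. Charcoal-separated supernatant scintillation-counted; values expressed as % of control minus no-protein blank.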

Each structure is given as a SMILES string.

For the molecule `CN(C(=O)n1cnc(-c2ccc(O)c(C(N)=O)c2)c1)C1CCOCC1` [Compound no. 513, 4-(3-carbamoyl-4-hydroxyphenyl)-N-methyl-N-(tetrahydro-2H-pyran-4-yl)-1H-imidazole-1-carboxamide], the “In Vivo BRh 3 mg · kg · 8 h (remaining FAAH activity)” value at FAAH [1] is reported as 90.3 % of control. For the same molecule, the “In Vivo LVh 3 mg · kg · 8 h (remaining FAAH activity)” value on FAAH [2] is on record as 14.4 % of control.

Regarding `CN(C(=O)n1nnc2ccccc21)C1CCN(Cc2ccccc2)CC1.Cl` [Compound no. 492, N-(1-benzylpiperidin-4-yl)-N-methyl-1H-benzo[d][1,2,3]triazole-1-carboxamide hydrochloride], the “In Vivo BRh 3 mg·kg 8 h (remaining FAAH activity, % of control)” value on FAAH [1] is 0.9 % of control. For the same molecule, on FAAH [2], the “In Vivo LVh 3 mg·kg 8 h (remaining FAAH activity, % of control)” value is 0.7 % of control.

Consider `CN(C(=O)n1cnc(-c2ccc(-c3nn[nH]n3)cc2)c1)C1CCCCC1` [Compound no. 380, 4-(4-(2H-tetrazol-5-yl)phenyl)-N-cyclohexyl-N-methyl-1H-imidazole-1-carboxamide], for which the “In Vivo BRh 3 mg·kg 8 h (remaining FAAH activity, % of control)” value on FAAH [1] is on record as 77.3 % of control. For the same molecule, the “In Vivo LVh 3 mg·kg 8 h (remaining FAAH activity, % of control)” value at FAAH [2] is reported as 51.3 % of control.

On to `CC1(C)COCN1C(=O)n1nnc2cc(C(=O)NO)ccc21` [Compound no. 440, 1-(4,4-dimethyloxazolidine-3-carbonyl)-N-hydroxy-1H-benzo[d][1,2,3]triazole-5-carboxamide], for which, at FAAH [1], the “In Vivo BRh 3 mg·kg 8 h (remaining FAAH activity, % of control)” value is on record as 23.2 % of control. Also, the “In Vivo LVh 3 mg·kg 8 h (remaining FAAH activity, % of control)” value at FAAH [2] is on record as 3.3 % of control.

On to `CN(C(=O)n1cnc(-c2ccc[n+]([O-])c2)c1)C1CCN(Cc2ccccc2)CC1` [Compound no. 459, 3-(1-((1-benzylpiperidin-4-yl)(methyl)carbamoyl)-1H-imidazol-4-yl)pyridine 1-oxide], for which the “In Vivo BRh 3 mg·kg 8 h (remaining FAAH activity, % of control)” value on FAAH [1] is given as 1.3 % of control. Also, at FAAH [2], the “In Vivo LVh 3 mg·kg 8 h (remaining FAAH activity, % of control)” value was 1.9 % of control.

Regarding `COc1ccc(-c2cn(C(=O)N(C)C3CCNCC3)cn2)cc1` [Compound no. 501, 4-(4-methoxyphenyl)-N-methyl-N-(piperidin-4-yl)-1H-imidazole-1-carboxamide], the “In Vivo BRh 3 mg · kg · 8 h (remaining FAAH activity)” value at FAAH [1] is given as 108.5 % of control. In addition, the “In Vivo LVh 3 mg · kg · 8 h (remaining FAAH activity)” value on FAAH [2] is 67.4 % of control.

`COc1cc(-c2cn(C(=O)N(C)C3CCCC3)cn2)ccc1F` [Compound 321, N-cyclopentyl-4-(4-fluoro-3-methoxyphenyl)-N-methyl-1H-imidazole-1-carboxamide]: the “In Vivo BRh 3 mg·kg 8 h (remaining FAAH activity, % of control)” value on FAAH [1] is reported as 1.4 % of control. For the same molecule, the “In Vivo LVh 3 mg·kg 8 h (remaining FAAH activity, % of control)” value on FAAH [2] is 1.2 % of control.

As for `Br.CN(C(=O)n1cnc(-c2ccc(O)c(F)c2)c1)C1CCN(Cc2ccccc2)CC1` [Compound no. 454, N-(1-benzylpiperidin-4-yl)-4-(3-fluoro-4-hydroxyphenyl)-N-methyl-1H-imidazole-1-carboxamide hydrobromide], at FAAH [1], the “In Vivo BRh 3 mg·kg 8 h (remaining FAAH activity, % of control)” value was 3.1 % of control. The “In Vivo LVh 3 mg·kg 8 h (remaining FAAH activity, % of control)” value at FAAH [2] is 3 % of control.

As to `COc1ccc(-c2cn(C(=O)N3COCC3(C)C)cn2)cc1N` [Compound no. 356, (4-(3-amino-4-methoxyphenyl)-1H-imidazol-1-yl)(4,4-dimethyloxazolidin-3-yl)methanone], the “In Vivo BRh 3 mg·kg 8 h (remaining FAAH activity, % of control)” value on FAAH [1] is recorded as 6.5 % of control. For the same molecule, the “In Vivo LVh 3 mg·kg 8 h (remaining FAAH activity, % of control)” value at FAAH [2] was 9.4 % of control.

As for `CN(C(=O)n1cnc(-c2ccc(O)c([N+](=O)[O-])c2)c1)C1CCOCC1` [Compound no. 494, 4-(4-hydroxy-3-nitrophenyl)-N-methyl-N-(tetrahydro-2H-pyran-4-yl)-1H-imidazole-1-carboxamide], the “In Vivo BRh 3 mg · kg · 8 h (remaining FAAH activity)” value at FAAH [1] was 48.9 % of control. In addition, the “In Vivo LVh 3 mg · kg · 8 h (remaining FAAH activity)” value on FAAH [2] is 22.9 % of control.

In the case of `CN(C(=O)n1cnc(-c2ccc(NCc3ccccc3)c([N+](=O)[O-])c2)c1)C1CCCCC1` [Compound no. 425, 4-(4-(benzylamino)-3-nitrophenyl)-N-cyclohexyl-N-methyl-1H-imidazole-1-carboxamide], the “In Vivo BRh 3 mg·kg 8 h (remaining FAAH activity, % of control)” value at FAAH [1] is 111.4 % of control. Also, at FAAH [2], the “In Vivo LVh 3 mg·kg 8 h (remaining FAAH activity, % of control)” value is listed as 104.6 % of control.

`CN(C(=O)n1cnc(-c2cccnc2)c1)C1CCN(S(C)(=O)=O)CC1` [Compound no. 533, N-methyl-N-(1-(methylsulfonyl)piperidin-4-yl)-4-(pyridin-3-yl)-1H-imidazole-1-carboxamide]: the “In Vivo BRh 3 mg · kg · 8 h (remaining FAAH activity)” value on FAAH [1] was 12 % of control. At FAAH [2], the “In Vivo LVh 3 mg · kg · 8 h (remaining FAAH activity)” value was 0.2 % of control.

Consider `O=C(N1CCOCC1)n1ccc2cc(F)ccc21` [Compound 46, (5-fluoro-1H-indol-1-yl)(morpholino)methanone], for which the “In Vitro FAAH activity, 100 nM” value on FAAH [3] was 104.3 % of control.

`CN(C(=O)n1cnc(-c2ccc(Cl)cc2)c1)C1CCCC1` [Compound 244, 4-(4-chlorophenyl)-N-cyclopentyl-N-methyl-1H-imidazole-1-carboxamide]: the “In Vitro FAAH activity, 100 nM” value on FAAH [3] is 5.4 % of control.

Turning to `COc1ccc(NC(=O)n2nnc3ccccc32)cc1` [Compound 57, N-(4-methoxyphenyl)-1H-benzo[d][1,2,3]triazole-1-carboxamide], the “In Vitro FAAH activity, 100 nM” value on FAAH [3] is 96.9 % of control.

For the molecule `CN(C(=O)n1cnc2ccccc21)c1ccccc1` [Compound 18, N-methyl-N-phenyl-1H-benzo[d]imidazole-1-carboxamide], the “In Vitro FAAH activity, 10 uM” value on FAAH [3] (10 uM test compound) is 67.9 % of control.

As to `CCOC(=O)C1CCN(C(=O)n2nnc3ccccc32)CC1` [Compound 176, ethyl 1-(1H-benzo[d][1,2,3]triazole-1-carbonyl)piperidine-4-carboxylate], the “In Vitro FAAH activity, 100 nM” value on FAAH [3] is reported as 0.2 % of control.

The record behind these values is patent US9353082B2, “Pharmaceutical compounds” (BIAL—PORTELA & CA, S.A., priority 2008, dated 2016).
